# Legend:
# Format in all cases: cell-based
# phospho-AKT = experiment: Western blot of insulin signals in 3T3-L1 adipocytes (peptide of SEQ ID NO: 2); conditions: 2, 20 μg/ml, FIGS. 15a, 15b
# Description: (§1) When 3T3-L1 preadipocytes reached 80% confluence, they were seeded in a 6-well plate at 5×10^5 cells/well and used for the experiment. Two days after reaching confluence, the culture medium was replaced with a differentiation induction medium [DMEM medium containing 10% FBS, 1 μg/ml insulin, 0.5 mM isobutyl methyl xanthine (IBMX) (Sigma, USA), and 1 μM dexamethasone (Sigma, USA)], and differentiation into adipocytes was induced. Two days after induction, preadipocytes were cultured for two days in a medium containing 10% FBS and 10 μg/mL insulin, and then the medium was replaced with a medium containing 10% FBS every two days until preadipocytes differentiated into adipocytes. When differentiation was completed, the medium was replaced with a serum-free medium, and cells were cultured for four hours to induce starvation. To the cells, each of rhTNF-α (2 nM), insulin (1 μg/ml), and the peptide of SEQ ID NO: 2 of Preparation Example 1 (2, 20 μg/ml) was added and the cells were cultured for one hour. The cells were cultured for 30 minutes, the cells of each treatment group were lysed by adding a lysis buffer, and then centrifuged at 4° C. and 12,000 rpm for 30 minutes. The obtained proteins were quantified using a BCA kit. Proteins were subjected to sodium dodecyl sulfate-polyacrylamide gel electrophoresis (SDS-PAGE) and electrotransferred to a membrane. The protein-attached membrane was blocked with 5% skim milk treatment, and then the primary antibody was reacted overnight at 4° C. The membrane was washed with PBS-T, the secondary antibody was reacted at room temperature for one hour, the membrane was washed again with PBS-T, and then visualization was carried out by using Gel Doc (Bio-Rad, Hercules, CA, USA) with a western detection reagent (Elpis Biotech, Daejeon, Korea). The antibodies used in the experiment are as follows: anti-phospho-IRS (Ser302) antibody (Cell signaling technology (CST), USA), anti-phospho-IRS (Tyr632) antibody (Cell signaling technology (CST), USA), anti-phospho-AKT antibody (Cell signaling technology (CST), USA), anti-phospho-AMPK antibody (Cell signaling technology (CST), USA), and anti-α-tubulin antibody (Santa Cruz Biotechnology, USA). […] In addition, it was confirmed that when the peptide of the present invention was treated, the phosphorylation of AMPK, an insulin sensitivity-increasing signaling protein, increased. Meanwhile, it was confirmed that phosphorylation of Ser302 of an insulin receptor substrate (IRS) decreased under an insulin resistance-inducing environment by the treatment of the present peptide, and thus insulin resistance was inhibited.
# phospho-AMPK = experiment: as above; conditions: 2, 20 μg/ml, FIGS. 15a, 15b
# Description: as §1
# phospho-IRS (Ser302) = experiment: as above; conditions: rhTNF-α 2 nM, 2, 20 μg/ml, FIGS. 15a, 15b
# Description: as §1
# phospho-IRS (Tyr632) = experiment: as above; conditions: 2, 20 μg/ml, FIGS. 15a, 15b
# Description: as §1
# 3T3-L1 adipocytes = experiment: Glycerol release assay (lipolysis) in 3T3-L1 adipocytes; conditions: 2, 20 μg/ml, 48 h, FIG. 14
# Description: The release amount of glycerol, a lipolysis product, was analyzed to determine whether the peptide of SEQ ID NO: 2 prepared in Preparation Example 1 promotes lipolysis in adipocytes.
# When 3T3-L1 preadipocytes reached 80% confluence, they were seeded in a 6-well plate at 5×10^5 cells/well and used for the experiment. Two days after reaching confluence, the culture medium was replaced with a differentiation induction medium [DMEM medium containing 10% FBS, 1 μg/ml insulin, 0.5 mM isobutyl methyl xanthine (IBMX) (Sigma, USA), and 1 μM dexamethasone (Sigma, USA)], and differentiation into adipocytes was induced. Two days after induction, preadipocytes were cultured for two days in a medium containing 10% FBS and 10 μg/mL insulin, and then the medium was replaced with a medium containing 10% FBS every two days until preadipocytes differentiated into adipocytes. When differentiation was completed, the medium was replaced with a serum-free medium, and cells were cultured for four hours to induce starvation. Cells were divided into an untreated group (negative control), the peptide of SEQ ID NO: 2 of Preparation Example 1 (2, 20 μg/ml)-treatment group, and the TNF-α (20 nM)-treatment group (positive control), and then treated with the substances at predetermined concentrations and cultured for 48 hours. Then, the supernatants were obtained. […]
# [1] = tested on: adipose triglyceride lipase (ATGL); experiment: Western blot of lipolytic enzyme proteins in 3T3-L1 adipocytes; conditions: 2, 20 μg/ml, 1 h, FIGS. 13a, 13b
# Description: (§2) Whether the peptide of SEQ ID NO: 2 prepared in Preparation Example 1 promotes the expressions of lipolytic enzyme proteins in adipocytes was tested through protein expression analysis (western blot analysis).
# (§3) When 3T3-L1 preadipocytes reached 80% confluence, they were seeded in a 6-well plate at 5×10^5 cells/well and used for the experiment. Two days after reaching confluence, the culture medium was replaced with a differentiation induction medium [DMEM medium containing 10% FBS, 1 μg/ml insulin, 0.5 mM isobutyl methyl xanthine (IBMX) (Sigma, USA), and 1 μM dexamethasone (Sigma, USA)], and differentiation into adipocytes was induced. Two days after induction, preadipocytes were cultured for two days in a medium containing 10% FBS and 10 μg/mL insulin, and then the medium was replaced with a medium containing 10% FBS every two days until preadipocytes differentiated into adipocytes. When differentiation was completed, the medium was replaced with a serum-free medium, and cells were cultured for four hours to induce starvation. Cells were divided into an untreated group (negative control), the peptide of Preparation Example 1 (2, 20 μg/ml)-treatment group, and the TNFα (20 nM)-treatment group (positive control), and then treated with the substances at predetermined concentrations and cultured for one hour. Then, the cells in each treatment group were lysed by adding a lysis buffer. After lysis, proteins obtained by centrifugation at 4° C. and 12,000 rpm for 30 minutes were quantified using a BCA kit. Proteins were subjected to sodium dodecyl sulfate-polyacrylamide gel electrophoresis (SDS-PAGE) and electrotransferred to a membrane. The protein-attached membrane was blocked with 5% skim milk treatment, and then the primary antibody was reacted overnight at 4° C. The membrane was washed with PBS-T, the secondary antibody was reacted at room temperature for one hour, the membrane was washed again with PBS-T, and then visualization was carried out by using Gel Doc (Bio-Rad, Hercules, CA, USA) with a western detection reagent (Elpis Biotech, Daejeon, Korea). […]
# perilipin (PLIN) = experiment: as above; conditions: 2, 20 μg/ml, 1 h, FIGS. 13a, 13b
# Description: as §2, §3
# [2] = tested on: phosphorylated hormone-sensitive lipase (pHSL); experiment: as above; conditions: 2, 20 μg/ml, 1 h, FIGS. 13a, 13b
# Description: as §2, §3
sequence,measurement,setting,value
KGSATGWMA [peptide of SEQ ID NO: 2],activation of phosphorylation-AKT,phospho-AKT,promoted
same,phosphorylation of AMPK,phospho-AMPK,increased
same,phosphorylation of Ser302 of insulin receptor substrate (IRS) under an insulin resistance-inducing environment,phospho-IRS (Ser302),decreased
same,phosphorylation of Tyr632 of insulin receptor substrate (IRS),phospho-IRS (Tyr632),promoted
same,"release amount of glycerol, a lipolysis product",3T3-L1 adipocytes,increased in a treated peptide concentration-dependent manner
same,expression of adipose triglyceride lipase (ATGL),[1],increased
same,expression of perilipin (PLIN),perilipin (PLIN),increased
same,expression of phosphorylated hormone-sensitive lipase (pHSL),[2],increased
